Holding throughout (type): functional
Assay [1] has as its system Tetranychus urticae. As to the kind of experiment: Acaricidal activity against Tetranychus urticae (two-spotted spider mite) in second leaf stage of Phaseolus vulgaris var. Serena assessed as mortality at 500 ppm after 7 days.
The test system of assay [2] is Tetranychus urticae. Description: Acaricidal activity against Tetranychus urticae (two-spotted spider mite) in second leaf stage of Phaseolus vulgaris var. Serena assessed as mortality at 200 ppm after 7 days.
In assay [3] the test system is Tetranychus urticae. As to the kind of experiment: Acaricidal activity against Tetranychus urticae (two-spotted spider mite) in second leaf stage of Phaseolus vulgaris var. Serena assessed as mortality at 100 ppm after 7 days.
Assay [4] concerns Tetranychus urticae. Description: Acaricidal activity against Tetranychus urticae (two-spotted spider mite) in second leaf stage of Phaseolus vulgaris var. Serena assessed as mortality at 50 ppm after 7 days.

Consider `c1ccc(CN2CCN=C2c2cccnc2)cc1`, for which the Activity in the assay with Tetranychus urticae [1] is listed as 25%.
Consider `Clc1ccc(CN2CCN=C2c2cccnc2)cn1`, for which the Activity is given as 25% in the assay with Tetranychus urticae [2] and 50% in the assay with Tetranychus urticae [1].
Regarding `c1ccc(C2=NCCN2c2ccccc2)cc1`, in the assay on Tetranychus urticae [1], the Activity was under 24%.
Still for that read-out and setting: as for `c1ccc(CCN2CCN=C2c2ccccc2)cc1`, the figure is 25%; as for `c1ccc(CC2=NCCN2Cc2ccccc2)cc1`, under 24%.
The same measure, in the same setting: as for `Clc1ccc(CC2=NCCN2Cc2ccc(Cl)cc2)cc1`, the figure is under 24%.
Consider `Clc1ccc(CN2CCCN=C2c2ccccc2)cc1`, for which the Activity with Tetranychus urticae [2] was 25%; in the assay with Tetranychus urticae [1] it was 50%.
Take `CC1(C)CN=C(c2ccccc2)N(Cc2ccc(Cl)cc2)C1`: the Activity in the assay with Tetranychus urticae [2] is 50%; in the assay with Tetranychus urticae [1] it was over 80%; in the assay on Tetranychus urticae [3] it was 25%.
Regarding `Clc1ccc(CN2CCN=C2c2ccccc2)c(Cl)c1`, in the assay on Tetranychus urticae [1], the Activity was found to be 25%.
Consider `Clc1cccc(Cl)c1CN1CCN=C1c1ccccc1`, for which the results for the Activity with Tetranychus urticae [2] and in the assay with Tetranychus urticae [1] were 25% and over 80%, respectively.
On to `Clc1ccccc1C1=NCCN1Cc1ccccc1`, for which the values for the Activity with Tetranychus urticae [2], in the assay with Tetranychus urticae [1] and with Tetranychus urticae [3] were 50%, over 80% and 25%, respectively.
On to `Clc1cccc(C2=NCCN2Cc2ccccc2)c1`, for which the Activity with Tetranychus urticae [1] was under 24%.
The same measure, in the same setting: then `Clc1ccc(C2=NCCN2Cc2ccccc2)cc1`, with under 24%.
For the compound `Fc1cccc(F)c1C1=NCCN1Cc1ccccc1`, the Activity in the assay on Tetranychus urticae [2], with Tetranychus urticae [4], with Tetranychus urticae [1] and in the assay on Tetranychus urticae [3] was over 80% throughout.
With `Fc1cccc(F)c1C1=NCCN1Cc1ccc(Cl)cc1`, the Activity in the assay with Tetranychus urticae [2] is recorded as over 80%; in the assay on Tetranychus urticae [4] it was 25%; in the assay with Tetranychus urticae [1] it was over 80%; in the assay on Tetranychus urticae [3], over 80%.
For the compound `c1ccc(C2=NCCN2Cc2cccnc2)cc1`, the Activity with Tetranychus urticae [2] is recorded as 50%; in the assay on Tetranychus urticae [1], over 80%; with Tetranychus urticae [3], 25%.
For `c1ccc(C2=NCCN2Cc2ccncc2)cc1`, in that order: 50%, over 80% and over 80%.
For `Clc1ccc(CN2CCN=C2c2ccccc2)cn1`, the Activity is on record as under 24% in the assay with Tetranychus urticae [2] and 50% in the assay with Tetranychus urticae [1].
For `Clc1ccc(CN2CCN=C2c2cccnc2)cc1`, the Activity in the assay on Tetranychus urticae [2] is recorded as over 80%; in the assay with Tetranychus urticae [4], 25%; with Tetranychus urticae [1] it was over 80%; with Tetranychus urticae [3] it was 50%.
Take `c1cncc(CN2CCN=C2c2cccnc2)c1`: the Activity in the assay on Tetranychus urticae [2] is 50%; in the assay on Tetranychus urticae [1] it was over 80%; with Tetranychus urticae [3] it was 25%.
For `Clc1ccccc1CN1CCN=C1c1ccccc1`, in that order: 50%, over 80% and 25%.
As to `Clc1cccc(CN2CCN=C2c2ccccc2)c1`, the Activity with Tetranychus urticae [2] is recorded as 25%; in the assay with Tetranychus urticae [1], over 80%.
Turning to `Clc1ccc(CN2CCN=C2c2ccccc2)cc1`, the Activity in the assay on Tetranychus urticae [2], with Tetranychus urticae [4], in the assay with Tetranychus urticae [1] and in the assay on Tetranychus urticae [3] was over 80% in each case.
In the case of `Cc1ccc(CN2CCN=C2c2ccccc2)cc1`, the Activity in the assay on Tetranychus urticae [1] is under 24%.
On the same count and under the same terms, as for `COc1ccc(CN2CCN=C2c2ccccc2)cc1`, the figure is under 24%.
As for `CC(C)(C)c1ccc(CN2CCN=C2c2ccccc2)cc1`, the Activity was 50% in the assay on Tetranychus urticae [2], over 80% with Tetranychus urticae [1] and 25% in the assay on Tetranychus urticae [3].
For the compound `c1ccc(C2=NCCN2Cc2ccc(-c3ccccc3)cc2)cc1`, the Activity with Tetranychus urticae [2] is over 80%; in the assay on Tetranychus urticae [4], 25%; in the assay on Tetranychus urticae [1], over 80%; in the assay with Tetranychus urticae [3], 50%.
On to `c1ccc(CN2CCN=C2c2ccccc2)cc1`, for which the figures for the Activity in the assay on Tetranychus urticae [2] and with Tetranychus urticae [1] were 25% and 50%, respectively.

(Values after ChEMBL document CHEMBL3044824, “Synthesis and Acaricidal Activity of 1-Arylmethyl-2-arylimidazolidines” (2001).)
